Laboratory results: US20220031695A1, “SHP2 INHIBITOR COMPOSITIONS FOR USE IN TREATING CANCER” (Revolution Medicines, Inc., priority 2018, published 2022)
pIC50: −log10 of the molar value.

What was measured:
[1] = system: ROS1 fusion-positive NSCLC; conditions: patients harboring ROS1 fusion-positive NSCLC; cited from earlier work
SHP2 = target: T1, SHP2 (Homo sapiens, UniProt Q06124); test: SHP2 allosteric inhibition assay (DiFMUP prompt fluorescence); type: biochemical; conditions: 0.2 nM SHP2, 0.5 μM activating peptide, DiFMUP substrate
T1 sequence (Q06124 1-593): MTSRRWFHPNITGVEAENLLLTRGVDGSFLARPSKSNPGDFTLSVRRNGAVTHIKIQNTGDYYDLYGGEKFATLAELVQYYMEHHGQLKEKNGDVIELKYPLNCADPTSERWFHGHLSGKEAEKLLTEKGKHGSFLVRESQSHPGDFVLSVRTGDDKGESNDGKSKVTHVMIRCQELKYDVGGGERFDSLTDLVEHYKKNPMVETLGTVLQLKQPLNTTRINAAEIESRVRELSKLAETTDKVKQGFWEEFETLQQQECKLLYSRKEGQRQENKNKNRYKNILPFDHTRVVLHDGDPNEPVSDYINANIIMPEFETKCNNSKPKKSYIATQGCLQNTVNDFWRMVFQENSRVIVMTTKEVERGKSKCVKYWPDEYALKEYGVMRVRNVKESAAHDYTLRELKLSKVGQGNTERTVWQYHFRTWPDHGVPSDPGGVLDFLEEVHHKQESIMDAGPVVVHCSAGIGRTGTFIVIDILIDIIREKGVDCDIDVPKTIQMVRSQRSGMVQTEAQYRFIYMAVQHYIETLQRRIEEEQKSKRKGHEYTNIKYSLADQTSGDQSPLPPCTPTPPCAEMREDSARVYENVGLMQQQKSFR
Source text: Without wishing to be bound by theory, SHP is allosterically activated through binding of bis-tyrosyl-phosphorylated peptides to its Src Homology 2 (SH2) domains. The latter activation step leads to the release of the auto-inhibitory interface of SHP2, which in turn renders the SHP2 protein tyrosine phosphatase (PTP) active and available for substrate recognition and reaction catalysis. The catalytic activity of SHP2 was monitored using the surrogate substrate DiFMUP in a prompt fluorescence assay format.
The phosphatase reactions were performed at room temperature in 96-well black polystyrene plate, flat bottom, non-binding surface (Corning, Cat #3650) using a final reaction volume of 100 μL and the following assay buffer conditions: 50 mM HEPES, pH 7.2, 100 mM NaCl, 0.5 mM EDTA, 0.05% P-20, 1 mM DTT.
The inhibition of SHP2 by RMC-3943, RMC-4550, and Compound C was monitored using an assay in which 0.2 nM of SHP2 was incubated with 0.5 μM of Activating Peptide 1 (sequence: H2N-LN(pY)IDLDLV(dPEG8)LST(pY)ASINFQK-amide) (SEQ ID NO: 1) or Activating Peptide 2 (sequence: H2N-LN(pY)AQLWHA(dPEG8)LTI(pY)ATIRRF-amide) (SEQ ID NO: 2). After 30-60 minutes incubation at 25° C., the surrogate substrate DiFMUP (Invitrogen, Cat #D6567) was added to the reaction and activity was determined by a kinetic read using a microplate reader (Envision, Perkin-Elmer or Spectramax M5, Molecular Devices). […]

Row | SMILES | progression-free survival [1] [month] | pIC50 (SHP2)
1 | C[C@@H](Oc1cc(-c2cnn(C3CCNCC3)c2)cnc1N)c1c(Cl)ccc(F)c1Cl [crizotinib] | 19 | –
2 | Nc1nc(N2CCC3(CCC[C@H]3N)CC2)cnc1Sc1ccnc(Cl)c1Cl [RMC-3943] | – | 8.66
